Assays:
mdx mice [1] = assay: Glycemia monitoring, insulin sensitivity, glucose and pyruvate tolerance tests, adipocyte histology in mdx mice; format: in vivo, mouse
Experimental: Glucose was measured in blood (first drop from tail venipuncture) or serum (5 μl of 1:2 dilution) with an AimStrip Plus glucometer system (Germaine Laboratories, San Antonio, Tex.) and expressed as mg/dl values. Lactate was measured in blood (second drop from tail venipuncture) or serum (5 μl of 1:2 dilution) with a Lactate Plus reader (Nova Biomedical, Waltham, Mass.) and expressed as mM values. Fasting glycemia was measured in mice after 4 hours fasting (7 AM-11 AM). Glucose, insulin and pyruvate tolerance tests were conducted after 4 hours fasting in individual cages immediately after baseline fasting glucose monitoring. Mice were injected with either 1 g/kg glucose (#D8375-1 g; Millipore Sigma, St Louis, Mo.), or 0.5 U/kg insulin (#12585014; Thermo Fisher, Waltham, Mass.), or 2.5 g/kg pyruvate (#P5280-25 g; Millipore Sigma, St Louis, Mo.) in 200 μl intraperitoneal injections, and glucose was then monitored by tail venipuncture at 10 min, 20 min, 30 min, 60 min, 120 min after injection. All glucose and pyruvate tolerance tests were conducted blinded to treatment groups.
Histology. Excised tissues (muscles, omental fat, heart) were placed in 10% formaldehyde (Cat #245-684; Fisher Scientific, Waltham, Mass.) for histologic processing. Seven μm sections from the center of paraffin-embedded muscles were stained with hematoxylin and eosin (H&E; cat #12013B, 1070C; Newcomer Supply, Middleton, Wis.) and Masson's trichrome (Cat #HT-15; Sigma-Aldrich; St. Louis, Mo.). Myofiber/adipocyte CSA quantitation was conducted on 400 myofibers/adipocytes per tissue per mouse. Imaging was performed using a Zeiss Axio Observer A1 microscope, using 10× and 20× (short-range) objectives. Brightfield pictures were acquired via Gryphax software (version 1.0.6.598; Jenoptik, Jena, Germany). Area quantitation was performed by means of ImageJ (Schneider et al., 2012). Sample processing, imaging and CSA quantitation were conducted blinded to treatment groups.

mdx mice [2] = assay: Multi-modal imaging (FDG-PET, microCT, MR) of live mdx mice; format: in vivo, mouse; conditions: weekly prednisone
From the text: Multi-modal Imaging (FDG-PET, microCT, MR). Mice were anesthetized in an induction chamber with 3% isoflurane in oxygen, weighed, and then transferred to a dedicated imaging bed with isoflurane delivered via nosecone at 1-2%. Mice were placed in the prone position on a plastic bed and immobilized to minimize changes in position between scans. Respiratory signals were monitored using a digital monitoring system developed by Mediso (Mediso-USA, Boston, Mass.). Mice were imaged with a preclinical microPET/CT imaging system (nanoScan PET/CT, Mediso-USA, Boston, Mass.). CT data was acquired with a 2.2× magnification, <60 μm focal spot, 2×2 binning, with 480 projection views over a full circle, using 50 kVp/[…], with a 300 ms exposure time. The projection data was reconstructed with a voxel size of 250 μm and using filtered (Butterworth filter) backprojection software from Mediso. A bone mineral density standard (GRM GmbH, Moehrendorf, Germany) with hydroxyapatite (HA) from 0 to 1200 mg HA/cm^3 was used to convert the CT images from Hounsfield units to bone mineral density. The HA standard was imaged with the same parameters. For PET imaging, a target of 10 MBq of ^18F-fluordeoxyglucose (FDG) was injected intravenously after mice had been fasted for four hours. PET acquisition parameters were as follows: 1:1 coincidence detection and 30-minute acquisition time. MLEM reconstruction was used with CT for attenuation correction and scattering. Pixel size was set to 0.3×0.3 mm. After completion of PET/CT, each mouse was transferred to the MRI scanner and a reference standard consisting of one tube of canola oil and one tube of water was positioned above its back. MRI was performed on a 9.4T Bruker Biospec MRI system with a 30 cm bore, a 12 cm gradient insert, and an AutoPac laser positioned motorized bed (Bruker Biospin Inc, Billerica, Mass.). Respiratory signals and temperature were monitored using an MR-compatible physiologic monitoring system (SA Instruments, Stonybrook, N.Y.); a warm water circulating system was used to maintain body temperature. A 72 mm quadrature volume coil (Bruker Biospin, Inc, Billerica, Mass.) was used to image each mouse's whole body in two overlapping fields of view. First, the mouse was positioned with the thorax at the magnet's isocenter and imaged using a T1-weighted accelerated spin echo sequence (Rapid Acquisition with Relaxation Enhancement, RARE) with five pairs of interleaved axial slice stacks covering brain to mid-abdomen. TR was nominally set at 1000 ms; with respiratory gating the functional TR was approximately 1500 ms (range 1300-2000 ms). The following additional parameters were used: TE=6.25 ms, RARE factor 4, MTX=256×256, FOV 45×45 mm, 15 slices of 1 mm thick, 4 mm gap between slices, and 2 signal averages. […]

## C[C@]12C=CC(=O)C=C1CC[C@@H]1[C@@H]2C(=O)C[C@@]2(C)[C@H]1CC[C@]2(O)C(=O)CO [prednisone, Prednisone]
Mdx mice [1]; daily prednisone
  adipocyte hypertrophy: induced adipocyte hypertrophy
  endpoint glucose and pyruvate tolerance tests: induced glucose intolerance and pyruvate intolerance
  glucose homeostasis: impaired
  insulin resistance: induced insulin resistance
Mdx mice [1]; daily prednisone, over treatment
  Glycemia: progressively increased
Mdx mice [1]; weekly prednisone
  endpoint glucose tolerance test: did not increase glucose intolerance
  insulin sensitivity: higher
Mdx mice [2]
  18FDG uptake in fat: decreasing
  fat mass accumulation (magnetic resonance): did not increase
  muscle uptake of 18FDG: increase
  osteoporosis (bone mineral density, tomography): did not induce osteoporosis
